Experimental data from patent publication US7410989B2, “Compounds, methods and compositions useful for the treatment of bovine viral diarrhea virus (BVDV) infection and hepatitis C virus (HCV) infection” (The University of North Carolina at Chapel Hill, priority 2001, dated 2008).
Counter-ions that a name gives are not always drawn.

Assays:
BVDV = test: Screening of antiviral compounds for anti-BVDV activity in MDBK cells; virus titre by immunoperoxidase monolayer assay; type: cell-based, bovine viral diarrhea virus; details: for Day 3 Media TCID50/mL / Day 3 Media % Control / Day 7 Media TCID50/mL / Day 7 Media % Control: culture medium
Procedure: 2.0 cm^2 wells in a 24-well plate were seeded with 50 μl of medium from 12 ml of MEM-eq (minimum essential medium (MEM) with Earle's salts supplemented with 10% (v/v) equine serum, sodium bicarbonate (0.75 mg/ml), L-glutamine (0.29 mg/ml), penicillin G (100 U/ml), streptomycin (100 μg/ml), and amphotericin B (0.25 μg/ml)), which was derived by trypsinization of a confluent monolayer of Madin Darby Bovine Kidney (MDBK) cells in a 25 cm^2 flask. Cells were incubated at 38.5° C. with 5% CO2 for 24 hours. The average number of cells per well was determined and later used to calculate appropriate multiplicities of infection (MOI) of BVDV virus. […]
The inoculated cells incubated for one hour at 38.5° C. with 5% CO2 in humidified air. The medium was removed from the wells, and the cells washed one time with Ca^2+ and Mg^2+-free PBS comprising antiviral compound (12.5 μM) (cells in the wells not initially treated with antiviral compounds were washed without antiviral compound). […] Three days post-inoculation, medium was removed and stored at −20° C. for assay. […] Seven days post-inoculation, medium was removed and stored at −80° C. for serial dilution & assay.
The MDBK cells were resuspended in MEM-eq with no antiviral compound. Uterine tubal cells (UTC) were freeze-thawed and stored at −80° C. for analysis. UTC lysates were serially diluted with medium from Day 7 and assayed by immunoperoxidase for the presence of BVDV.
All samples were assayed for BVDV using the immunoperoxidase monolayer assay as described in A. Afshar et al., Can J Vet Res; 55:91-93 (1991). Samples were assayed in triplicate by adding 50 μL of MEM-eq containing approximately 2.5×10^3 MDBK cells to 50-μL of each sample supplemented with 50 μL of fresh MEM-eq in a 96-well culture plate. Plates were incubated for 72 h at 38.5° C. in a humidified atmosphere of 5% CO2 and air before the immunoperoxidase labeling technique was performed as follows:
After fixation, potentially infected cells were incubated with monoclonal antibodies D89 (M. L. Vickers et al., J Vet Diagn Invest 2, 300-302 (1990); Xue W et al., J Clin Microbiol 28, 1688-1693 […] specific for E2/gp53, a major envelope glycoprotein of BVDV (Xue W et al., Vet Microbiol 57, 105-118 (1997)) and 20.10.6 specific for NS3-p80, a conserved nonstructural protein (W. V. Corapi et al., Am J Vet Res 51, 1388-1394 (1990)). After washing with PBS and Tween 20 to remove unbound antibodies, peroxidase-conjugated rabbit anti-mouse IgG (Jackson Immuno Research Lab, West Grove, Pa.) was added. After a short incubation period, unbound peroxidase-conjugated antibody was removed by washing with PBS and Tween 20. Finally, the enzyme substrate, aminoethyl carbazole (Zymed Laboratories, Inc., South San Francisco, Calif.), which produces a reddish-brown color when oxidized by horseradish peroxidase, was added. Color change was visualized under light microscopy and compared to known positive and negative controls on each plate.
The tissue culture infective dose 50% (TCID50)/ml of the exposure aliquot was determined by the method of Reed and Muench (L. J. Reed and H. Muench, Am J Hygiene 27, 493-497 (1938). Results of viral detection assays were compared using a Pearson Chi-square test statistic (J. Sall and A. Lehman, JMP Start Statistics (Duxbury Press, Belmont, Calif. (1996), 195-211).

[1] = 12.5 μM compound, BVDV MOI 0.05
[2] = 12.5 μM compound, BVDV MOI 0.05, titre as % of no-antiviral control
[3] = 12.5 μM compound, BVDV MOI 1.0, titre as % of no-antiviral control
[4] = compound at 0.2 μm, BVDV MOI 0.05
[5] = compound at 0.4 μm, BVDV MOI 0.05
[6] = compound at 0.7 μm, BVDV MOI 0.05
[7] = compound at 1.5 μm, BVDV MOI 0.05
[8] = compound at 3 μm, BVDV MOI 0.05
[9] = compound at 6 μm, BVDV MOI 0.05
[10] = compound at 12 μm, BVDV MOI 0.05
[11] = compound at 25 μm, BVDV MOI 0.05
[12] = 12.5 μM compound, BVDV MOI 0.5, titre as % of no-antiviral control

Cc1cc(NC(=N)N)ccc1-c1ccc(-c2ccc(NC(=N)N)cc2C)o1.Cl.Cl
melting point: 265 to 271 °C (dec.)

Cl.Cl.N=C(N)Nc1ccc(-c2ccc(-c3ccc(NC(=N)N)cc3Cl)o2)c(Cl)c1
melting point: 300 to 304 °C (dec.)

Nc1ccc(-c2ccc(-c3nc4ccc(C5=NCCN5)cc4[nH]3)o2)cc1 (as salt: salt) [DB 456, 2-[5 (6)-{2-imidazolinyl}-2-benzimidazoyl]-5-(4-aminophenyl)furan]
melting point: > 300 °C

O=[N+]([O-])c1ccc(-c2ccc(-c3nc4ccc(C5=NCCN5)cc4[nH]3)o2)cc1 (as salt: salt) [DB 457, 2-[5 (6)-{2-imidazolinyl}-2-benzimidazoyl]-5-(4-nitrophenyl)furan]
melting point: > 300 °C

N=C(N)c1ccc(-c2ccc(-c3cccc(C(=N)N)c3)[nH]2)cc1 [DB619]
Day 7 Cell Lysates TCID50/mL (BVDV; [1]): 1.10E+06 TCID50/mL | Day 7 Cell Lysates % Control (BVDV; [2]): 55.00% | Day 3 Media TCID50/mL (BVDV; [1]): 3.50E+02 TCID50/mL | Day 3 Media % Control (BVDV; [2]): 0.18% | Day 7 Media TCID50/mL (BVDV; [1]): 2.00E+05 TCID50/mL | Day 7 Media % Control (BVDV; [2]): 38.46% | Day 7 Cell Lysates TCID50/mL (BVDV; 12.5 μM compound, BVDV MOI 1.0): 3.50E+05 TCID50/mL | Day 7 Cell Lysates % Control (BVDV; [3]): 56.45% | Day 3 Media TCID50/mL (BVDV; 12.5 μM compound, BVDV MOI 1.0): 6.20E+04 TCID50/mL | Day 3 Media % Control (BVDV; [3]): 17.71% | Day 7 Media TCID50/mL (BVDV; 12.5 μM compound, BVDV MOI 1.0): 3.50E+04 TCID50/mL | Day 7 Media % Control (BVDV; [3]): 100.00%

N=C(N)Nc1ccc(-c2ccc(-c3ccc(NC(=N)N)cc3)o2)cc1 [DB673]
Day 7 Cell Lysates TCID50/mL (BVDV; [1]): 3.50E+04 TCID50/mL | Day 7 Cell Lysates % Control (BVDV; [2]): 1.75% | Day 3 Media TCID50/mL (BVDV; [1]): 1.00E+02 TCID50/mL | Day 3 Media % Control (BVDV; [2]): 0.05% | Day 7 Media TCID50/mL (BVDV; [1]): 6.20E+03 TCID50/mL | Day 7 Media % Control (BVDV; [2]): 1.19% | Day 7 Cell Lysates TCID50/mL (BVDV; 12.5 μM compound, BVDV MOI 1.0): 2.70E+05 TCID50/mL | Day 7 Cell Lysates % Control (BVDV; [3]): 43.55% | Day 3 Media TCID50/mL (BVDV; 12.5 μM compound, BVDV MOI 1.0): 3.50E+02 TCID50/mL | Day 3 Media % Control (BVDV; [3]): 0.10% | Day 7 Media TCID50/mL (BVDV; 12.5 μM compound, BVDV MOI 1.0): 2.00E+05 TCID50/mL | Day 7 Media % Control (BVDV; [3]): 571.43%

Nc1ccc(-c2ccc(-c3nc4ccc(C5=NCCN5)cc4[nH]3)o2)cc1 [DB 456, 2-[5 (6)-{2-imidazolinyl}-2-benzimidazoyl]-5-(4-aminophenyl)furan]
Day 3 Cell Lysates % Control (BVDV; [4]): 100.0000% | Day 3 Cell Lysates TCID50/mL (BVDV; [4]): 3.50E+05 TCID50/mL | Day 3 Media % Control (BVDV; [4]): 31.5000% | Day 3 Media TCID50/mL (BVDV; [4]): 6.30E+05 TCID50/mL | Day 3 Cell Lysates % Control (BVDV; [5]): 1000.0000% | Day 3 Cell Lysates TCID50/mL (BVDV; [5]): 3.50E+06 TCID50/mL | Day 3 Media % Control (BVDV; [5]): 31.5000% | Day 3 Media TCID50/mL (BVDV; [5]): 6.30E+05 TCID50/mL | Day 3 Cell Lysates % Control (BVDV; [6]): 1000.0000% | Day 3 Cell Lysates TCID50/mL (BVDV; [6]): 3.50E+06 TCID50/mL | Day 3 Media % Control (BVDV; [6]): 31.5000% | Day 3 Media TCID50/mL (BVDV; [6]): 6.30E+05 TCID50/mL | Day 3 Cell Lysates % Control (BVDV; [7]): 1000.0000% | Day 3 Cell Lysates TCID50/mL (BVDV; [7]): 3.50E+06 TCID50/mL | Day 3 Media % Control (BVDV; [7]): 25.5000% | Day 3 Media TCID50/mL (BVDV; [7]): 5.10E+05 TCID50/mL | Day 3 Cell Lysates % Control (BVDV; [8]): 177.1429% | Day 3 Cell Lysates TCID50/mL (BVDV; [8]): 6.20E+05 TCID50/mL | Day 3 Media % Control (BVDV; [8]): 17.5000% | Day 3 Media TCID50/mL (BVDV; [8]): 3.50E+05 TCID50/mL | Day 3 Cell Lysates % Control (BVDV; [9]): 10.0000% | Day 3 Cell Lysates TCID50/mL (BVDV; [9]): 3.50E+04 TCID50/mL | Day 3 Media % Control (BVDV; [9]): 1.7500% | Day 3 Media TCID50/mL (BVDV; [9]): 3.50E+04 TCID50/mL | Day 3 Cell Lysates % Control (BVDV; [10]): 1.0000% | Day 3 Cell Lysates TCID50/mL (BVDV; [10]): 3.50E+03 TCID50/mL | Day 3 Media % Control (BVDV; [10]): 0.0310% | Day 3 Media TCID50/mL (BVDV; [10]): 6.20E+02 TCID50/mL | Day 3 Cell Lysates % Control (BVDV; [11]): 0.5714% | Day 3 Cell Lysates TCID50/mL (BVDV; [11]): 2.00E+03 TCID50/mL | Day 3 Media % Control (BVDV; [11]): 0.1750% | Day 3 Media TCID50/mL (BVDV; [11]): 3.50E+03 TCID50/mL

O=[N+]([O-])c1ccc(-c2ccc(-c3nc4ccc(C5=NCCN5)cc4[nH]3)o2)cc1 [DB 457, 2-[5 (6)-{2-imidazolinyl}-2-benzimidazoyl]-5-(4-nitrophenyl)furan]
Day 3 Cell Lysates TCID50/mL (BVDV; 12.5 μM compound, BVDV MOI 0.5): 3.50E+02 TCID50/mL | Day 3 Cell Lysates % Control (BVDV; [12]): 0.0056% | Day 3 Media TCID50/mL (BVDV; 12.5 μM compound, BVDV MOI 0.5): 1.00E+02 TCID50/mL | Day 3 Media % Control (BVDV; [12]): 0.0029%
